From patent US20030022792A1, “HERBICIDAL COMPOSITIONS FOR TOLERANT OR RESISTANT CEREAL CROPS” (priority 1998, published 2003)

Key:
Type in all cases: in vivo
Alopecurus myosuroides = test: Field trial with cereals (wheat), herbicidal action; conditions: application at start of stocking, scoring 3 weeks after application
Procedure: (§1) Transgenic cereal plants with a resistance to one or more herbicides (A) together with typical weed plants were grown in the open on 2×5 m plots under natural field conditions; alternatively, weed infestation occurred naturally when the cereal plants were grown.
(§2) […] The damage to, and the development of, all aerial parts of the plants was recorded. Scoring was done on the basis of a percentage sale (100% action=all plants destroyed; 50% action=50% of the plants and green parts of the plants destroyed; 0% action=no recognizable effect=like control plot. The mean of the score values of in each case 4 plots was calculated.

Digitaria Sanguinalis = test: as above; conditions: application at start of stocking, scoring 3 weeks after application
Procedure: as §1, §2

Ambrosia maritima = test: Field trial with cereal (wheat), herbicidal action; conditions: application at start of stocking, scoring 11 days after application
Procedure: as §1, §2

Lolium multiflorum = test: Field trial with cereal (wheat), herbicidal action; conditions: for Herbicidal action (%) against Lolium multiflorum: scoring 27 days after application
Procedure: as §1, §2

Galium aparine = test: Field trial with cereal (wheat), herbicidal action; conditions: application at 4-leaf stage, scoring 28 days after application
Procedure: as §1
(§3) 2, 4, 6 and 8 weeks after the application, the herbicidal activity of the active substances or active substance mixtures was scored visually with reference to the treated plots in comparison to untreated control plots. The damage to, and the development of, all aerial parts of the plants was recorded. Scoring was done on the basis of a percentage sale (100% action=all plants destroyed; 50% action=50% of the plants and green parts of the plants destroyed; 0% action=no recognizable effect=like control plot. The mean of the score values of in each case 4 plots was calculated.

Lamium purpureum = test: Field trial with cereal (wheat), herbicidal action; conditions: application at 4-leaf stage, scoring 28 days after application
Procedure: as §1, §3

[1] = Lolium multiflorum, read-out: Herbicidal action (%) against Lolium multiflorum

Compound: CP(=O)(O)CCC(N)C(=O)O (centres unmarked) [(A1.2), glufosinate-ammonium]
- Herbicidal action (%) against Alopecurus myosuroides (Alopecurus myosuroides; 200 g of a.s./ha): 55%
- Herbicidal action (%) against Alopecurus myosuroides (Alopecurus myosuroides; 400 g of a.s./ha): 83%
- Herbicidal action (%) against Alopecurus myosuroides (Alopecurus myosuroides; 600 g of a.s./ha): 93%
- Herbicidal action (%) against Digitaria Sanguinalis (Digitaria Sanguinalis; 200 g of a.s./ha): 45%
- Herbicidal action (%) against Digitaria Sanguinalis (Digitaria Sanguinalis; 400 g of a.s./ha): 90%
- Herbicidal action (%) against Digitaria Sanguinalis (Digitaria Sanguinalis; 600 g of a.s./ha): 99%
- Herbicidal action (%) against Ambrosia maritima (Ambrosia maritima; 200 g of a.s./ha): 58%
- Herbicidal action (%) against Ambrosia maritima (Ambrosia maritima; 400 g of a.s./ha): 100%
- Herbicidal action (%) against Ambrosia maritima (Ambrosia maritima; 600 g of a.s./ha): 100%
- pest or weed control at 200 g/ha (Lolium multiflorum; [1]): 0%
- pest or weed control at 330 g/ha (Lolium multiflorum; [1]): 15%
- pest or weed control at 500 g/ha (Lolium multiflorum; [1]): 78%
- Herbicidal action (%) against Galium aparine (Galium aparine; 100 g of a.s./ha): 0%
- Herbicidal action (%) against Galium aparine (Galium aparine; 200 g of a.s./ha): 0%
- Herbicidal action (%) against Galium aparine (Galium aparine; 300 g of a.s./ha): 0%
- Herbicidal action (%) against Lamium purpureum (Lamium purpureum; 200 g of a.s./ha): 8%
- Herbicidal action (%) against Lamium purpureum (Lamium purpureum; 330 g of a.s./ha): 35%

Compound: CCc1cnc(C2=NC(C)(C(C)C)C(=O)N2)c(C(=O)O)c1 (centres unmarked) [(A3.2), imazethapyr]
- pest or weed control at 70 g/ha (Lolium multiflorum; Lolium multiflorum, wheat field trial, 70 g of a.s./ha, application at 3-leaf stage, scoring after application, read-out: Herbicidal action (%) against Lolium multiflorum): 0%

Compound: CC(C)c1ccc(NC(=O)N(C)C)cc1 [(B1.1.1), isoproturon]
- pest or weed control at 1500 g/ha (Lolium multiflorum; Lolium multiflorum, wheat field trial, 1500 g of a.s./ha, application at 3-leaf stage, scoring after application, read-out: Herbicidal action (%) against Lolium multiflorum): 55%

Compound: CC(C)N(C(=O)COc1nnc(C(F)(F)F)s1)c1ccc(F)cc1 [(B1.1.3), fluthiamide]
- pest or weed control at 180 g/ha (Lolium multiflorum; Lolium multiflorum, wheat field trial, 180 g of a.s./ha, application at 3-leaf stage, scoring after application, read-out: Herbicidal action (%) against Lolium multiflorum): 25%

Compound: CCC(CC)Nc1c([N+](=O)[O-])cc(C)c(C)c1[N+](=O)[O-] [(B1.1.5), pendimethalin]
- Herbicidal action (%) against Lamium purpureum (Lamium purpureum; 960 g of a.s./ha): 75%

Compound: C#CCOC(=O)[C@@H](C)Oc1ccc(Oc2ncc(Cl)cc2F)cc1 [(B1.2.2), clodinafop-propargyl]
- pest or weed control at 50 g/ha (Lolium multiflorum; Lolium multiflorum, wheat field trial, 50 g of a.s./ha, application at 3-leaf stage, scoring after application, read-out: Herbicidal action (%) against Lolium multiflorum): 73%

Compound: COC(=O)C(C)Oc1ccc(Oc2ccc(Cl)cc2Cl)cc1 (centres unmarked) [(B1.2.3), diclofop-methyl]
- Herbicidal action (%) against Lolium multiflorum (Lolium multiflorum; wheat field trial, 500 g of a.s./ha, application at 3-leaf stage): 60%
- Herbicidal action (%) against Lolium multiflorum (Lolium multiflorum; wheat field trial, 750 g of a.s./ha, application at 3-leaf stage): 83%

Compound: COc1cc(OC)nc(NC(=O)NS(=O)(=O)c2nc(C(F)(F)F)ccc2C(=O)O)n1 [(B1.2.6), flupyrsulfuron]
- pest or weed control at 7.5 g/ha (Lolium multiflorum; [1]): 25%

Compound: COC(=O)c1ccccc1S(=O)(=O)NC(=O)Nc1nc(C)nc(OC)n1 [(B2.1), metsulfuron-methyl]
- Herbicidal action (%) against Lamium purpureum (Lamium purpureum; 3 g of a.s./ha): 75%

Compound: COC(=O)c1ccc(NS(C)(=O)=O)cc1S(=O)(=O)NC(=O)Nc1nc(OC)cc(OC)n1 [(B2.3), methyl 4-methylsulfonylamino-2-(4,6-dimethoxypyrimidin-2-ylcarbamoylsulfamoyl)benzoate]
- pest or weed control at 5 g/ha (Lolium multiflorum; Lolium multiflorum, wheat field trial, 5 g of a.s./ha, application at 3-leaf stage, scoring after application, read-out: Herbicidal action (%) against Lolium multiflorum): 65%

Compound: CCS(=O)(=O)c1nc2ccccn2c1S(=O)(=O)NC(=O)Nc1nc(OC)cc(OC)n1 [(B2.6), sulfosulfuron]
- pest or weed control at 20 g/ha (Lolium multiflorum; Lolium multiflorum, wheat field trial, 20 g of a.s./ha, application at 3-leaf stage, scoring after application, read-out: Herbicidal action (%) against Lolium multiflorum): 35%

Compound: COC(=O)c1ccccc1S(=O)(=O)NC(=O)N(C)c1nc(C)nc(OC)n1 [(B4.1.1), tribenuron-methyl]
- Herbicidal action (%) against Lamium purpureum (Lamium purpureum; 15 g of a.s./ha): 68%

Compound: COc1cc(OC)nc(NC(=O)NS(=O)(=O)N(C)S(C)(=O)=O)n1 [(B4.1.2), amidosulfuron]
- Herbicidal action (%) against Galium aparine (Galium aparine; 20 g of a.s./ha): 75%

Compound: CCOC(=O)/C(Cl)=C/c1cc(N2C(=O)C3=C(CCCC3)C2=O)ccc1Cl [(B4.1.6), cinidon-ethyl]
- Herbicidal action (%) against Galium aparine (Galium aparine; 35 g of a.s./ha): 65%

Compound: Cc1cc(Cl)ccc1O[C@@H](C)C(=O)O [(B4.2.2), CMPP-P]
- Herbicidal action (%) against Galium aparine (Galium aparine; 750 g of a.s./ha): 73%

Compound: Cc1cc(Cl)ccc1OCC(=O)O [(B4.2.4), MCPA]
- Herbicidal action (%) against Ambrosia maritima (Ambrosia maritima; 500 g of a.s./ha): 0%

Compound: Nc1c(Cl)c(F)nc(OCC(=O)O)c1Cl [(B4.2.5), fluroxypyr]
- Herbicidal action (%) against Galium aparine (Galium aparine; 120 g of a.s./ha): 75%

Compound: N#Cc1cc(Br)c(O)c(Br)c1 [(B4.3.1), bromoxynil]
- Herbicidal action (%) against Lamium purpureum (Lamium purpureum; 180 g of a.s./ha): 55%
- Herbicidal action (%) against Lamium purpureum (Lamium purpureum; 360 g of a.s./ha): 83%

Compound: CCOC(=O)C(Cl)Cc1cc(-n2nc(C)n(C(F)F)c2=O)c(F)cc1Cl (centres unmarked) [(B4.4.1), carfentrazone-ethyl]
- Herbicidal action (%) against Galium aparine (Galium aparine; 10 g of a.s./ha): 45%
- Herbicidal action (%) against Galium aparine (Galium aparine; 20 g of a.s./ha): 55%

Compound: CCOC(=O)COc1cc(-c2nn(C)c(OC(F)F)c2Cl)c(F)cc1Cl [(B4.4.2), pyraflufen-ethyl]
- Herbicidal action (%) against Alopecurus myosuroides (Alopecurus myosuroides; 10 g of a.s./ha): 0%
- Herbicidal action (%) against Digitaria Sanguinalis (Digitaria Sanguinalis; 10 g of a.s./ha): 0%

Compound: O=C(Nc1ccc(F)cc1F)c1cccnc1Oc1cccc(C(F)(F)F)c1 [Diflu, diflufenican]
- pest or weed control at 150 g/ha (Lolium multiflorum; Lolium multiflorum, wheat field trial, 150 g of a.s./ha, application at 3-leaf stage, scoring after application, read-out: Herbicidal action (%) against Lolium multiflorum): 35%
